In ChEMBL document CHEMBL2069259, “Preclinical strategy to reduce clinical hepatotoxicity using in vitro bioactivation data for >200 compounds” (Chem Res Toxicol, 2012):
Starred links: 1 amine or outer side, 2 acyl side, 3 side chain; linkers in the order of their positions; H or OH if unused. Positions of bridges follow the written chain, without caps; N, C: chain ends. Non-standard residues stand in square brackets, D forms with d. Residues, ends and D or L forms follow the SMILES beside them. Chains are numbered I, II in the order given. Actinocin(9to1) = Cc1c2oc3c(C)ccc(C(=O)[*:1])c3nc-2c(C(=O)[*:2])c(N)c1=O; NMeV = CN[C@H](C(=O)O)C(C)C; Sar = CNCC(=O)O

Legend:
[1] = biological target: CYP2C19 (Homo sapiens, UniProt P33261); test: Inhibition of human CYP2C19 assessed as ratio of IC50 in absence of NADPH to IC50 for presence of NADPH using 3-butyryl-7-methoxycoumarin as substrate after 30 mins
[2] = biological target: CYP2C9 (Homo sapiens, UniProt P11712); test: Inhibition of human CYP2C9 assessed as ratio of IC50 in absence of NADPH to IC50 for presence of NADPH using 7-methoxy-4-trifluoromethylcoumarin-3-acetic acid as substrate after 30 mins
[3] = system: Liver microsomes; test: Metabolic stability in human liver microsomes assessed as GSH adduct formation at 100 uM after 90 mins by HPLC-MS analysis; settings: 1.5 h
[4] = biological target: CYP2D6 (Homo sapiens, UniProt P10635); test: Inhibition of human CYP2D6 assessed as ratio of IC50 in absence of NADPH to IC50 for presence of NADPH using 4-methylaminoethyl-7-methoxycoumarin as substrate after 30 mins
[5] = system: Liver microsomes; test: Metabolic stability in human liver microsomes assessed as high signal/noise ratio (S/N of >100) by measuring GSH adduct formation at 100 uM after 90 mins by HPLC-MS analysis; settings: 1.5 h
[6] = biological target: T1, CYP3A4 (Homo sapiens, UniProt P08684); test: Inhibition of human CYP3A4 assessed as ratio of IC50 in absence of NADPH to IC50 for presence of NADPH using diethoxyfluorescein as substrate after 30 mins
[7] = biological target: T1, CYP3A4; test: Inhibition of human CYP3A4 assessed as ratio of IC50 in absence of NADPH to IC50 for presence of NADPH using 7-benzyloxyquinoline as substrate after 30 mins
[8] = biological target: T2, CYP1A2 (Homo sapiens, UniProt P05177); test: Inhibition of human CYP1A2 assessed as ratio of IC50 in absence of NADPH to IC50 for presence of NADPH using ethoxyresorufin as substrate after 30 mins
T2 sequence (P05177 whole entry): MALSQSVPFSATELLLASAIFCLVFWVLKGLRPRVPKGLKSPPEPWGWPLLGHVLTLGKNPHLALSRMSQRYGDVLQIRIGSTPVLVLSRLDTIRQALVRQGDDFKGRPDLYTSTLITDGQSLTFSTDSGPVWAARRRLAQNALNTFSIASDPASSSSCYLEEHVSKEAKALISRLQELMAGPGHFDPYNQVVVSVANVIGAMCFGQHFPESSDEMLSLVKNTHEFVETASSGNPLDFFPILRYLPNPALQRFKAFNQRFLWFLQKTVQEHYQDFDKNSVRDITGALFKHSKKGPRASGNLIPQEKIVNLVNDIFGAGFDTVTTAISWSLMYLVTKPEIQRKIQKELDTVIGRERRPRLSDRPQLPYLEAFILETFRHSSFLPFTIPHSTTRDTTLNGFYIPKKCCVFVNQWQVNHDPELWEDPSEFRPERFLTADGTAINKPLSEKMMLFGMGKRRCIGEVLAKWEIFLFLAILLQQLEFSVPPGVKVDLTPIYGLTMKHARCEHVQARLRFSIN

[9] = system: Liver microsomes; settings: human, 1.5 h, 100 µM
[10] = system: Liver microsomes; test: Metabolic stability in human liver microsomes assessed as low signal/noise ratio (S/N of 1 to 10) by measuring GSH adduct formation at 100 uM after 90 mins by HPLC-MS analysis; type: ADME, Microsome; settings: 1.5 h
[11] = probe 4-methylaminoethyl-7-methoxycoumarin
[12] = probe 3-butyryl-7-methoxycoumarin
[13] = probe 7-methoxy-4-trifluoromethylcoumarin-3-acetic acid

T1 sequence (P08684 whole entry): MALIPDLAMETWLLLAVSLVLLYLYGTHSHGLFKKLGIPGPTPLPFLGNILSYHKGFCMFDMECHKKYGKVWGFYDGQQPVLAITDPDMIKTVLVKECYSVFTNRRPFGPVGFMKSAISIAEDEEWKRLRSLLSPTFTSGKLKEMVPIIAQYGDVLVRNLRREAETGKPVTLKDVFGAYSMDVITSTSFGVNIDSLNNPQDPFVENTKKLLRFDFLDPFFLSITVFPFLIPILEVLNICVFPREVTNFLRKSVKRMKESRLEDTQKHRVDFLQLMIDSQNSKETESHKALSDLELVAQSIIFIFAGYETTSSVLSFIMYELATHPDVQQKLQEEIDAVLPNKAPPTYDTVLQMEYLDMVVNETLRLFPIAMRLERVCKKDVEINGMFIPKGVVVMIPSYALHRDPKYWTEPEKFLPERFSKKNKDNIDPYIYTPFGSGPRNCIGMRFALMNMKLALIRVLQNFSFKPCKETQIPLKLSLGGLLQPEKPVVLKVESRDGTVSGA
Chain of CYP2C19 (P33261 whole entry): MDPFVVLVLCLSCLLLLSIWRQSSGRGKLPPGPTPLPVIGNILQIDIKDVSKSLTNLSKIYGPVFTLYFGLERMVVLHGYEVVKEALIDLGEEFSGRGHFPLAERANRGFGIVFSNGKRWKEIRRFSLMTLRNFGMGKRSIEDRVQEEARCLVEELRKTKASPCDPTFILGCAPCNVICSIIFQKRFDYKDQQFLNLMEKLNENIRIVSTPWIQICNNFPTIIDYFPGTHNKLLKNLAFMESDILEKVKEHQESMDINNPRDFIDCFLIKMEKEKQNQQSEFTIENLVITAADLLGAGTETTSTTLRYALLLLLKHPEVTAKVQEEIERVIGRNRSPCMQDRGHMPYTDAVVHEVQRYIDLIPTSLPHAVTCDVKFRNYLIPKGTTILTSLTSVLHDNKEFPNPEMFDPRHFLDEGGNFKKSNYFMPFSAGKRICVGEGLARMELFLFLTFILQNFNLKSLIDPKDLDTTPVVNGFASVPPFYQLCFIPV
Chain of CYP2C9 (P11712 whole entry): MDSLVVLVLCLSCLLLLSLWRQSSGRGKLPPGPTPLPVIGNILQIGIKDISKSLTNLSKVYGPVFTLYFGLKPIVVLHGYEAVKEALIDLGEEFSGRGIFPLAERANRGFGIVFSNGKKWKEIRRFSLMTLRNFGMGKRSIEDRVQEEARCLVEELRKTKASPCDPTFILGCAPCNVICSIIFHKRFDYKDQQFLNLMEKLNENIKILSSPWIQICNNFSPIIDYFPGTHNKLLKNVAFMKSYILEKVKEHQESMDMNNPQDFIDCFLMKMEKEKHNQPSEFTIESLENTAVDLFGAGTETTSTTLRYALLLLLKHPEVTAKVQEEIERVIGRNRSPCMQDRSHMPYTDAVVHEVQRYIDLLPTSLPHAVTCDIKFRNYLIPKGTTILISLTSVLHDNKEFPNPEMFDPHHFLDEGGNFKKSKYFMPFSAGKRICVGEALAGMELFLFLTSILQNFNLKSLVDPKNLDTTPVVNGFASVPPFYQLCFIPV
Chain of CYP2D6 (P10635 whole entry): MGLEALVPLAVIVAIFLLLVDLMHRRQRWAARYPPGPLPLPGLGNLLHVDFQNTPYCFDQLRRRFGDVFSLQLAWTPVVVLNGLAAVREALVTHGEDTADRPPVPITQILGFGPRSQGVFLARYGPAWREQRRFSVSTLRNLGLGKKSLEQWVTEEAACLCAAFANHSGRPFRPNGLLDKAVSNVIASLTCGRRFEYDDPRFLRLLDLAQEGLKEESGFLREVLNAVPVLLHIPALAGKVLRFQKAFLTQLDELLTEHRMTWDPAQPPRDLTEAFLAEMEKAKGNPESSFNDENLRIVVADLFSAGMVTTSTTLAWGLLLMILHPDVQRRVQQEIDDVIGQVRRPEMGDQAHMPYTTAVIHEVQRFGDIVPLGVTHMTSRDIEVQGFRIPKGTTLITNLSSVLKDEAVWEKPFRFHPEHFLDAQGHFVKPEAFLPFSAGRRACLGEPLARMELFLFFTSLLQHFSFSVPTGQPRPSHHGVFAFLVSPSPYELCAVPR

For `O=C(O)COc1ccc(C(=O)c2cccs2)c(Cl)c1Cl`, the IC50 shift at 0.5 h [1] was under 2, the IC50 shift at 0.5 h [2] was 2 and the Stability [3] was “Stable”.
With `Oc1ccc2c(c1)[C@@]13CCCC[C@@]1(O)[C@@H](C2)N(CC1CCC1)CC3` [BUTORPHANOL] the Stability [3] was “Stable” and the IC50 shift at 0.5 h [4, 11] was under 2.
In the case of `CCOC(=O)n1ccn(C)c1=S` [CARBIMAZOLE], the Stability [5] is reported as “Unstable”, the IC50 shift at 0.5 h [4] is reported as over 5 and the IC50 shift at 0.5 h [6] is reported as over 5. For the same molecule, the IC50 shift at 0.5 h [7] was over 5.
With `Clc1ccccc1C(c1ccccc1)(c1ccccc1)n1ccnc1` [CLOTRIMAZOLE] the IC50 shift at 0.5 h [8] was 2, the Stability [3] was “Stable” and the IC50 shift at 0.5 h [4] was under 2.
`Cc1c2oc3c(C)ccc(C(=O)N[C@@H]4C(=O)N[C@H](C(C)C)C(=O)N5CCC[C@H]5C(=O)N(C)CC(=O)N(C)[C@@H](C(C)C)C(=O)O[C@@H]4C)c3nc-2c(C(=O)N[C@@H]2C(=O)N[C@H](C(C)C)C(=O)N3CCC[C@H]3C(=O)N(C)CC(=O)N(C)[C@@H](C(C)C)C(=O)O[C@@H]2C)c(N)c1=O` [DACTINOMYCIN] (I: T[dV]P[Sar][NMeV] / II: T[dV]P[Sar][NMeV]; ester I:1-I:C, II:1-II:C; linker I:N-II:N via Actinocin(9to1)) was tested, and the IC50 shift at 0.5 h [1, 12] was under 2, the IC50 shift at 0.5 h [2, 13] was 2 and the Stability [3] was “Stable”. For the same molecule, the IC50 shift at 0.5 h ([7]; probe 7-benzyloxyquinoline) was 2.
In the case of `CC/C(=C(/CC)c1ccc(O)cc1)c1ccc(O)cc1` [DIETHYLSTILBESTROL], the IC50 shift at 0.5 h [8] is reported as 2 and the Stability [5] is reported as “Unstable”.
For `CC1(C)[C@@H](O)CC[C@]2(C)[C@H]3C(=O)C=C4[C@@H]5C[C@@](C)(C(=O)O)CC[C@]5(C)CC[C@@]4(C)[C@]3(C)CC[C@@H]12` [ENOXOLONE], the IC50 shift at 0.5 h ([8]; probe ethoxyresorufin) was 2 and the Stability [3] was “Stable”.
For `CC(C)OC(=O)C(C)(C)Oc1ccc(C(=O)c2ccc(Cl)cc2)cc1` [FENOFIBRATE], the IC50 shift at 0.5 h [8] was over 5, the IC50 shift at 0.5 h [1] was under 2 and the Stability [3] was “Stable”. The IC50 shift at 0.5 h [4] was 2 and the IC50 shift at 0.5 h [6] was under 2.
For `CNCCC(Oc1ccc(C(F)(F)F)cc1)c1ccccc1` (centres undefined) [FLUOXETINE], the IC50 shift at 0.5 h [1] was over 5, the IC50 shift at 0.5 h [2] was 2 and the Stability [3] was “Stable”. It also gave an IC50 shift at 0.5 h [6] of 2 and an IC50 shift at 0.5 h [7] of over 5.
With `CC(C)C(=O)Nc1ccc([N+](=O)[O-])c(C(F)(F)F)c1` [FLUTAMIDE] the Stability [9] was “Unstable”, the IC50 shift at 0.5 h [8] was under 2 and the IC50 shift at 0.5 h [4] was under 2. It also gave an IC50 shift at 0.5 h [6] of under 2.
For `COCCCC/C(=N\OCCN)c1ccc(C(F)(F)F)cc1` [FLUVOXAMINE], the IC50 shift at 0.5 h ([8]; probe ethoxyresorufin) was under 2, the Stability [5] was “Unstable” and the IC50 shift at 0.5 h [4, 11] was 2.
In the case of `O=C(OCC(O)CO)c1ccccc1Nc1ccnc2cc(Cl)ccc12` (centres undefined) [GLAFENINE], the Stability [10] is reported as “Unstable”.
In the case of `C[N+]1(C)[C@@H]2CC[C@H]1C[C@@H](OC(=O)C(O)c1ccccc1)C2` (some centres undefined) [HOMATROPINE METHYLBROMIDE], the IC50 shift at 0.5 h [4, 11] is reported as under 2.
`CCN(CC)CCNc1ccc(CO)c2sc3ccccc3c(=O)c12` [HYCANTHONE] was tested, and the IC50 shift at 0.5 h [8] was over 5, the Stability [5] was “Unstable” and the IC50 shift at 0.5 h [6] was 2.
`NNC(=O)c1ccncc1` [ISONIAZID] was tested, and the IC50 shift at 0.5 h [1] was over 5, the Stability [3] was “Stable” and the IC50 shift at 0.5 h [4] was over 5. For the same molecule, the IC50 shift at 0.5 h [6] was over 5 and the IC50 shift at 0.5 h [7] was over 5.
With `CC(=O)N1CCN(c2ccc(OCC3COC(Cn4ccnc4)(c4ccc(Cl)cc4Cl)O3)cc2)CC1` (centres undefined) [KETOCONAZOLE] the Stability [10] was “Unstable”.
With `N[C@@H](Cc1cc(I)c(Oc2ccc(O)c(I)c2)c(I)c1)C(=O)O` [LIOTHYRONINE] the Stability [10] was “Unstable”.
For `C[C@](N)(Cc1ccc(O)c(O)c1)C(=O)O` [METHYLDOPA], the Stability [10] was “Unstable”.
`Oc1ccc2c3c1O[C@H]1[C@@H](O)CC[C@@]4(O)[C@@H](C2)N(CC2CCC2)CC[C@]314` [NALBUPHINE] was tested, and the IC50 shift at 0.5 h [2] was 2 and the Stability [3] was “Stable”.
With `CS(=O)(=O)Nc1ccc([N+](=O)[O-])cc1Oc1ccccc1` [NIMESULIDE] the Stability [10] was “Unstable”, the IC50 shift at 0.5 h [6] was 2 and the IC50 shift at 0.5 h [7] was under 2.
`CCN(CC)CC#CCOC(=O)C(O)(c1ccccc1)C1CCCCC1` (centres undefined) [OXYBUTYNIN] was tested, and the IC50 shift at 0.5 h [8] was over 2, the Stability [5] was “Unstable” and the IC50 shift at 0.5 h [1] was over 5. The IC50 shift at 0.5 h [2] was under 2.
In the case of `C1CCC(C(CC2CCCCN2)C2CCCCC2)CC1` (centres undefined) [PERHEXILINE], the IC50 shift at 0.5 h [2] is reported as under 2.
With `C[C@H]1[C@H](c2ccccc2)OCCN1C` [PHENDIMETRAZINE] the Stability [10] was “Unstable”.
`NNCCc1ccccc1` [PHENELZINE] was tested, and the Stability [9] was “Unstable”, the IC50 shift at 0.5 h [8] was 2 and the IC50 shift at 0.5 h [1] was over 5. The IC50 shift at 0.5 h [2] was 2, the IC50 shift at 0.5 h [4] was over 5 and the IC50 shift at 0.5 h [6] was 2.
For `CC(COc1ccccc1)N(CCCl)Cc1ccccc1` (centres undefined) [PHENOXYBENZAMINE], the IC50 shift at 0.5 h ([8]; probe ethoxyresorufin) was 2, the Stability [5] was “Unstable” and the IC50 shift at 0.5 h [1, 12] was 2. It also gave an IC50 shift at 0.5 h [2, 13] of under 2 and an IC50 shift at 0.5 h ([6]; probe diethoxyfluorescein) of 2.
With `CN1C(C(=O)Nc2ccccn2)=C(O)c2ccccc2S1(=O)=O` [PIROXICAM] the Stability [10] was “Unstable”.
In the case of `C[C@]12C=CC(=O)C=C1CC[C@@H]1[C@@H]2C(=O)C[C@@]2(C)[C@H]1CC[C@]2(O)C(=O)CO` [PREDNISONE], the Stability [10] is reported as “Unstable”.
`CN1CCN(CCCN2c3ccccc3Sc3ccc(Cl)cc32)CC1` [PROCHLORPERAZINE] was tested, and the Stability [10] was “Unstable”.
With `COc1ccc(CN(CCN(C)C)c2ccccn2)cc1` [PYRILAMINE] the Stability [9] was “Unstable” and the IC50 shift at 0.5 h [4, 11] was 2.
With `Nc1ccc(S(=O)(=O)Nc2ccnn2-c2ccccc2)cc1` [SULFAPHENAZOLE] the Stability [10] was “Unstable”.
With `Nc1c2c(nc3ccccc13)CCCC2` [TACRINE] the IC50 shift at 0.5 h [1] was under 2, the IC50 shift at 0.5 h [2] was 2 and the Stability [3] was “Stable”.
For `CC1=C(/C=C/C(C)=C/C=C/C(C)=C/C(=O)O)C(C)(C)CCC1` [TRETINOIN], the IC50 shift at 0.5 h ([8]; probe ethoxyresorufin) was under 2, the IC50 shift at 0.5 h [1, 12] was 2 and the Stability [3] was “Stable”. It also gave an IC50 shift at 0.5 h [4, 11] of 2, an IC50 shift at 0.5 h ([6]; probe diethoxyfluorescein) of 2 and an IC50 shift at 0.5 h ([7]; probe 7-benzyloxyquinoline) of over 5.
For `CC(c1cc2ccccc2s1)N(O)C(N)=O` (centres undefined) [ZILEUTON], the IC50 shift at 0.5 h ([8]; probe ethoxyresorufin) was over 5 and the Stability [3] was “Stable”.
